In patent US20230128137A1, “BENZO FIVE-MEMBERED CYCLIC COMPOUND” (MEDSHINE DISCOVERY INC., priority 2020, published 2023):

How the values were obtained:
[1] = Liver microsome metabolic stability in vitro, beagle dog; assay type: in vitro ADME; conditions: beagle dog liver microsomes
Method: (§1) 3.2 preparation of nicotinamide adenine dinucleotide phosphate cofactor solution: an appropriate amount of NADPH powder was weighed and diluted into 10 mM magnesium chloride solution (working solution concentration: 10 unit/mL; final concentration of reaction system: 1 unit/mL);
(§2) 3.3 preparation of liver microsomes: an appropriate concentration working solution of liver microsomes (human, SD rat, CD-1 mouse, beagle dog) was prepared in 100 mM potassium phosphate buffer;
(§3) 3.4 preparation of quenching solution: cold (4° C.) acetonitrile containing 200 ng/mL tolbutamide and 200 ng/mL labetalol as internal standard (IS) was used as quenching solution;
(§4) 3.5 experimental operation:
(§5) a. empty “incubation” plates T60 and NCF60 were preheated for 10 minutes;
(§6) b. the liver microsomes were diluted to 0.56 mg/mL with 100 mM phosphate buffer;
(§7) c. 445 μL of microsomal working solution (0.56 mg/mL) was transferred to the preheated “incubation” plates T60 and NCF60, and then the“incubation” plates T60 and NCF60 were preincubated for 10 min with continuous shaking at 37° C. 54 μL of liver microsomes were transferred to a blank plate, and 6 μL of NAPDH cofactor was added to the blank plate, and then 180 μL of quenching solution was added thereto;
(§8) e. for NCF60 plate, 50 μL of buffer was added thereto and the mixture was fully mixed for three times. Timing was started; the plate was shaken at 37° C. for 60 minutes;
(§9) f. in “quenching” plate TO, 180 μL of quenching solution and 6 μL of NAPDH cofactor were addded to make sure that the plate was cooled down to prevent evaporation;
(§10) g. for T60 plates, the mixture was fully mixed for three times, and 54 μL of mixture was immediately transferred to the “quenching” plate at the 0 min time point. 44 μL of NAPDH cofactor was then added to the culture plate (T60). Timing was started; the plate was shaken at 37° C. for 60 minutes;
(§11) h. at 5, 10, 20, 30 and 60 min, 180 μL of quenching solution was added to the “quenching” plate, and the mixture was mixed for one time, and 60 μL of sample was continuously transferred from the T60 plate to the “quenching” plate at each time point;
(§12) i. for NCF60: the mixture was mixed for one time, and 60 μL of sample was transferred from the NCF60 culture dish to the “quenching” plate containing quenching solution at 60 minutes time point;
(§13) j. all sampling plates were shaked for 10 minutes, then centrifuged at 4000 rpm for 20 minutes at 4° C.;
(§14) k. 60 μL of supernatant was transferred into 180 μL of HPLC water and stirred with a plate shaker for 10 min;
(§15) 1. before LC-MS/MS analysis, each bioanalysis plate was sealed and shaked for 10 minutes.

[2] = Liver microsome metabolic stability in vitro, SD rat; assay type: in vitro ADME; conditions: SD rat liver microsomes
Method: as §1, §2, §3, §4, §5, §6, §7, §8, §9, §10, §11, §12, §13, §14, §15

[3] = Liver microsome metabolic stability in vitro, CD-1 mouse; assay type: in vitro ADME; conditions: CD-1 mouse liver microsomes
Method: as §1, §2, §3, §4, §5, §6, §7, §8, §9, §10, §11, §12, §13, §14, §15

[4] = Liver microsome metabolic stability in vitro, human; assay type: in vitro ADME; conditions: human liver microsomes
Method: as §1, §2, §3, §4, §5, §6, §7, §8, §9, §10, §11, §12, §13, §14, §15

[5] = target: T1, Bcl-xL (Homo sapiens, UniProt Q07817); assay: HTRF competition test, Bcl-xL with FAM-Bad peptide (enzymology experiment); assay type: binding; conditions: 3 nM Bcl-xL and 40 nM FAM-Bad, read-out: IC50 (nM) for inhibition of Bcl-xL enzyme
T1 construct: Human recombinant Bcl-xL (amino acid 1-209); purchased Reaction Biology Corporation (RBC) APT-11-442; host or cells: E. coli
T1 sequence (Q07817 1-209): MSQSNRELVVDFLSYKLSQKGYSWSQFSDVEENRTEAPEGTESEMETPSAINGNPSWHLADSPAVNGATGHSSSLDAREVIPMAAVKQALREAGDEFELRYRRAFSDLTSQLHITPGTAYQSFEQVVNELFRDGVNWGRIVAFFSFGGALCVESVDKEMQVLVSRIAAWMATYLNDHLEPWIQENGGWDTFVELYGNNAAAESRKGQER
Method: (§16) This experiment was based on the competition between fluorescently-labeled Bak/Bad/Noxa peptides and GST-labeled Bcl family proteins. The fluorescence detection method based on HTRF was to observe the binding degree by using the fluorescence ratio between Tb-labeled anti-GST and FAM-labeled peptides. This peptide binds to the surface of the Bcl family protein pocket, which is essential for its anti-apoptotic function.
(§17) 1.1 Experimental reagents: analysis buffer: 20 mM potassium phosphate, pH 7.5, 50 mM sodium chloride, 1 mM EDTA, 0.005% Tritonx-100 and 1% DMSO.
(§18) 1.2 Probe: 5,6-FAM-peptide
(§19) 1.4 Experimental Conditions:
3 nM Bcl-xL and 40 nM FAM-Bad
(§20) a) The Bcl enzyme reaction solution was prepared in the newly prepared analysis buffer;
(§21) b) the Bcl enzyme reaction solution was provided;
(§22) c) the compound was first prepared into a 100% dimethyl sulfoxide solution, and then the compound solution was mixed with the Bcl enzyme reaction solution using (Echo550; nanoliter range) technology, and co-incubated for 10 minutes;
(§23) d) the FAM peptide solution was added.
(§24) e) the mixed solution was gently stirred in dark and room temperature, and co-cultured for 10 minutes.
(§25) f) Anti-GST solution was added.
(§26) g) The mixed solution was gently stirred in dark and room temperature, and co-cultured for 1 hour.
(§27) h) The HTRF high-frequency fluorescence ratio was tested, and the IC50 values were calculated.

[6] = tested on: RS4;11 cells; assay: CTG (CellTiter-Glo) test of inhibition of RS4;11 cell proliferation; assay type: cell-based; conditions: Homo sapiens, 72 hours incubation
Method: 2.1 Experimental objectives: To obtain the IC50 value of the test compound in RS4;11 cell lines;
2.2 incubation time: 72 hours;
2.3 experimental method: CTG (Cell Titer-Glo™ Luminescent Cell Viability Assay);
a. when the cells were fused to 80%, the cells were collected and counted;
b. RS4; 11 cell suspension was diluted to 5000 cells/well and 20 uls of cell suspension was seeded in each well of 384-well plate;
c. the cell plates were placed back to 37° C. and incubated in a 5% carbon dioxide incubator for 24 hours;
d. the test compound was prepared into DMSO solution, and 5 μL of each was added to the designated well of the test plate, and the final concentration of DMSO solution was 0.5%;
e. initiation cell viability was detected by CTG;
f. the test plate was put back into the incubator and incubated for another 72 hours;
g. after 72 hours incubation, CellTiter-Glo™ luminescent cell viability assay was completed according to the manufacturer's manual;

[7] = target: T2, Bcl-2 (Homo sapiens, UniProt P10415); assay: HTRF competition test, Bcl-2 with FAM-BAK peptide (enzymology experiment); assay type: binding; conditions: 4 nM Bcl-2 and 100 nM FAM-BAK, read-out: IC50 (nM) for inhibition of Bcl-2 enzyme
T2 construct: Human recombinant Bcl-2 (amino acid 1-207); purchased Reaction Biology Corporation (RBC) APT-11-441; host or cells: E. coli
T2 sequence (P10415 1-207): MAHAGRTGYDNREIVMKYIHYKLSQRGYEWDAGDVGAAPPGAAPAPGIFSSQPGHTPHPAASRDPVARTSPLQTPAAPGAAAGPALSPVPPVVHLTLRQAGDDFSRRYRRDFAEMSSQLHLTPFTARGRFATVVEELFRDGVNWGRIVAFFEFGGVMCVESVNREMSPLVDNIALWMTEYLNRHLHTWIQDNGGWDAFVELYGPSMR
Method: as §16, §17, §18, §19
4 nM Bcl-2 and 100 nM FAM-BAK
as §20, §21, §22, §23, §24, §25, §26, §27

In the case of `CC1(C)CCC(CN2CCN(c3ccc(C(=O)NS(=O)(=O)c4cc([N+](=O)[O-])c(NCC5CCOCC5)c5[nH]cnc45)c(Oc4cnc5[nH]ccc5c4)c3)CC2)=C(c2ccc(Cl)cc2)C1` [Compound 2], the CLint scaled at 1 µM [1] is reported as 26.8 mL/min/kg, the half-life at 1 µM [1] is reported as 1.24 h and the “Remaining (T = 60 min)” value ([1]; 60 min incubation) is reported as 52%. The CLint scaled at 1 µM [2] was 23.6 mL/min/kg, the half-life at 1 µM [2] was 1.76 h and the “Remaining (T = 60 min)” value ([2]; 60 min incubation) was 64.1%. For the same compound, the CLint scaled at 1 µM [3] was 79.7 mL/min/kg, the half-life at 1 µM [3] was 1.15 h and the “Remaining (T = 60 min)” value ([3]; 60 min incubation) was 54.6%. For the same compound, the “Remaining (T = 60 min)” value ([4]; 60 min incubation) was 45.6%, the CLint scaled at 1 µM ([4]; human) was 23.9 mL/min/kg and the half-life at 1 µM ([4]; human) was 0.87 h. For the same compound, the IC50 [5] was 411 nM, the IC50 [6] was 2.7 nM and the IC50 [7] was 1.5 nM.
